Test results as given in ChEMBL document CHEMBL1149498, “Uncompetitive antagonism of AMPA receptors: Mechanistic insights from studies of polyamine toxin derivatives” (J Med Chem, 2006).

Legend:
[1] = biological target: T1, Glutamate receptor ionotropic, AMPA (Rattus norvegicus, UniProt P19490+P19491+P19492+P19493); assay: Antagonist activity against rat brain AMPA receptor expressed in Xenopus laevis oocyte assessed as inhibition of kainate-induced current at holding potential -80 mV by two electrode voltage clamp method; format: functional
Glutamate receptor 1 [2] = biological target: T2, Glutamate receptor 1 (Rattus norvegicus, UniProt P19490); assay: Antagonist activity against rat GluR1 flop expressed in Xenopus laevis oocyte assessed as inhibition of glutamate-induced current at holding potential -100 mV by two electrode voltage clamp method; format: functional
T2 sequence (P19490 whole entry): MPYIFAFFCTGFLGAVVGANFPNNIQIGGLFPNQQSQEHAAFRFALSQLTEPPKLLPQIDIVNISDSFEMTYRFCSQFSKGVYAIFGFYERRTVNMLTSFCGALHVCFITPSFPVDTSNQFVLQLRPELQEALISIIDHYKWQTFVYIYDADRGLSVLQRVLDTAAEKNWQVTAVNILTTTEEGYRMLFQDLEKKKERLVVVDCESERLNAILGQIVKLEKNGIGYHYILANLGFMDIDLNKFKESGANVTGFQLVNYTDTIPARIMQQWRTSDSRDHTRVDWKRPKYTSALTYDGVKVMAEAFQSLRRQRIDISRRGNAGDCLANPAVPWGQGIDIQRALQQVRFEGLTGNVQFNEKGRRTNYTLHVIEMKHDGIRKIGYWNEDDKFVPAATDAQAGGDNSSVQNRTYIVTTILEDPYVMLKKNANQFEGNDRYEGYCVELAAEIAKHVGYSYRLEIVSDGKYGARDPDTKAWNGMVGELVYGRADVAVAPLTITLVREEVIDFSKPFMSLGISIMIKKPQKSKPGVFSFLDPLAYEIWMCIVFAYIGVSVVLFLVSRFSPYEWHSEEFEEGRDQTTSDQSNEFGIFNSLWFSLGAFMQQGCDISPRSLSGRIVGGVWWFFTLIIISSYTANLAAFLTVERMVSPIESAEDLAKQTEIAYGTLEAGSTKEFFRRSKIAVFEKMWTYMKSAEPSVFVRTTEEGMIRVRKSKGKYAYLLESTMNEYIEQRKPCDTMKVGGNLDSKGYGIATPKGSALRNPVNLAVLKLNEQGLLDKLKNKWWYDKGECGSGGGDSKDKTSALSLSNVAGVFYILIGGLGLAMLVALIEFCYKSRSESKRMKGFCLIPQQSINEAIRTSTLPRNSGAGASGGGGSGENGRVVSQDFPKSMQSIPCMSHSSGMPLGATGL

Glutamate receptor 1 [3] = biological target: T2, Glutamate receptor 1; assay: Antagonist activity against rat GluR1 flop expressed in Xenopus laevis oocyte assessed as inhibition of glutamate-induced current at holding potential -60 mV by two electrode voltage clamp method; format: functional
Glutamate receptor 1 [4] = biological target: T2, Glutamate receptor 1; assay: Antagonist activity against rat GluR1 flop expressed in Xenopus laevis oocyte assessed as inhibition of glutamate-induced current at holding potential -80 mV by two electrode voltage clamp method; format: functional
[5] = biological target: T1, Glutamate receptor ionotropic, AMPA; assay: Antagonist activity against rat brain AMPA receptor expressed in Xenopus laevis oocyte assessed as inhibition of kainate-induced current by two electrode voltage clamp method at holding potential -40 mV
[6] = biological target: T1, Glutamate receptor ionotropic, AMPA; assay: Antagonist activity against rat brain AMPA receptor expressed in Xenopus laevis oocyte assessed as inhibition of kainate-induced current by two electrode voltage clamp method at holding potential -100 mV
[7] = biological target: T1, Glutamate receptor ionotropic, AMPA; assay: Antagonist activity against rat brain AMPA receptor expressed in Xenopus laevis oocyte assessed as inhibition of kainate-induced current by two electrode voltage clamp method at holding potential -60 mV

Compound	IC50 [1] [µM]	Ki (Glutamate receptor 1 [2]) [µM]	Ki (Glutamate receptor 1 [3]) [µM]	Ki (Glutamate receptor 1 [4]) [µM]	IC50 [5] [µM]	IC50 [6] [µM]	IC50 [7] [µM]
CCCC(=O)N[C@@H](Cc1ccc(O)cc1)C(=O)NCCCCCNCCCCCCCCN	0.16	0.037	2.3	0.33			
CCCC(=O)N[C@@H](Cc1ccc(O)cc1)C(=O)NCCCCCNCCCCN	0.283	0.013	0.45	0.068			
CCCC(=O)N[C@@H](Cc1ccc(O)cc1)C(=O)NCCCCNCCCCCCCN	0.016			0.038	0.176	0.0033	0.0601
CCCC(=O)N[C@@H](Cc1ccc(O)cc1)C(=O)NCCCCCCNCCCCCCN	0.27			0.685			
CCCC(=O)N[C@@H](Cc1ccc(O)cc1)C(=O)NCCCCCNCCCCCCCCCCN		0.026	1.2	0.18			
CCCC(=O)N[C@@H](Cc1ccc(O)cc1)C(=O)NCCCCCNCCCCCCN	0.087	0.01	0.66	0.003			
CCCC(=O)N[C@@H](Cc1ccc(O)cc1)C(=O)NCCCCCCCNCCCCCCN	0.045			0.208			
CCCC(=O)N[C@@H](Cc1ccc(O)cc1)C(=O)NCCCNCCCCCCCCN	0.248			0.35			
CCCC(=O)N[C@@H](Cc1ccc(O)cc1)C(=O)NCCCCCNCCCCCCCCCN	0.798	0.065	5	0.45			
CCCC(=O)N[C@@H](Cc1ccc(O)cc1)C(=O)NCCCNCCCCCCN	0.547			0.126			
CCCC(=O)N[C@@H](Cc1ccc(O)cc1)C(=O)NCCCCCCCCCNCCN	0.122			0.41			
CCCC(=O)N[C@@H](Cc1ccc(O)cc1)C(=O)NCCCCCCCCNCCCN	0.039			0.065			
CCCC(=O)N[C@@H](Cc1ccc(O)cc1)C(=O)NCCCCCCNCCCCCN	0.388			0.468			
CCCC(=O)N[C@@H](Cc1ccc(O)cc1)C(=O)NCCCCCCCCCNCCCCCCN	0.086			0.037			
CCCC(=O)N[C@@H](Cc1ccc(O)cc1)C(=O)NCCCCCNCCCCCCCCCCCCN		0.077	3.1	0.48			
CCCC(=O)N[C@@H](Cc1ccc(O)cc1)C(=O)NCCCCCNCCCCCCCN	0.127	0.01	1.1	0.11			
CCCC(=O)N[C@@H](Cc1ccc(O)cc1)C(=O)NCCCCCNCCN	12.3	0.14	1.5	0.41			
CCCC(=O)N[C@@H](Cc1ccc(O)cc1)C(=O)NCCCCCNCCCCCN	0.207	0.013	0.46	0.095			
CCCC(=O)N[C@@H](Cc1ccc(O)cc1)C(=O)NCCCCCCCNCCCCN	0.138			0.168			
CCCC(=O)N[C@@H](Cc1ccc(O)cc1)C(=O)NCCCCNCCCCCCN	0.324			0.053			
CCCC(=O)N[C@@H](Cc1ccc(O)cc1)C(=O)NCCCCCNCCCN	1.1	0.014	0.27	0.063			
CCCC(=O)N[C@@H](Cc1ccc(O)cc1)C(=O)NCCCCCCCCNCCCCCCN	0.025			0.077			
CCCC(=O)N[C@@H](Cc1ccc(O)cc1)C(=O)NCCNCCCCCCN	0.31			0.208			
